Laboratory results published in patent US20240299277A1, “COMPOSITION FOR IMPROVING SKIN” (LG HOUSEHOLD & HEALTH CARE LTD., priority 2020, published 2024).

How the values were obtained:
[1] = system: Human skin keratinocytes; assay: Hyaluronic acid synthesis promotion in keratinocytes (Hyaluronan ELISA); format: cell-based; conditions: each component 3 μg/mL (3 ppm); 24 hours; medium without EGF and BPE; relative to methanol negative control; average of three
Experimental: Human skin keratinocytes (primary cultured human skin keratinocytes) were purchased from Thermo Fisher Scientific and cultured using Keratinocyte-SFM supplemented with epidermal growth factor (EGF), which is a growth factor, and bovine pituitary extract (BPE). The keratinocytes were dispensed in a 60-mm culture plate at a concentration of 2-5×10^5 cells/mL and cultured for 24 hours. The basal medium with growth factors was removed, and a medium (a medium to which EGF and BPE were not added) having a final concentration of 3 μg/mL (3 ppm) of each component of Comparative Examples 1 to 4 and Examples 1 to 6 was added and cultured for 24 hours. A positive control for inducing hyaluronic acid synthesis was treated with all-trans-retinoic acid to be 100 nM (positive control in Table 5). A cell culture solution was taken and synthesized hyaluronic acid was measured using a Hyaluronan DuoSet ELISA Kit (R&D Systems) and a spectrophotometer.
A calibration curve was created by measuring standard hyaluronic acid at concentrations of 1.1, 3.3, 10, 30, and 90 ng/mL, and based on this, the hyaluronic acid production amounts of Comparative Examples 1 to 4 and Examples 1 to 6, a negative control group, and […] were calculated. The hyaluronic acid production amount was calculated using a hyaluronic acid production rate (%) relative to the group treated with methanol (negative control group) (Equation 2 below), and the experiment was performed three times, and then an average value was calculated and shown in Table 5.

[2] = system: human-derived fibroblasts; assay: Collagen synthesis promotion in fibroblasts (Procollagen 1α1 ELISA); format: cell-based; conditions: each component 3 μg/mL (3 ppm); 24 hours; medium without FBS; relative to methanol negative control; average of three
Experimental: A mixture of DMEM and 10% FBS was used as a basal medium for culturing human-derived fibroblasts. Skin fibroblasts were dispensed in a 48-well plate at a concentration of 2-5×10^4 cells/mL and cultured for 24 hours. The basal medium with growth factors was removed, and a medium (a medium to which FBS was not added) having a final concentration of 3 μg/mL (3 ppm) of each component of Comparative Examples 1 to 4 and Examples 1 to 6 was added and cultured for 24 hours. A positive control for inducing collagen synthesis was treated with TGF-β to be 5 ng/mL (5 ppb) (positive control in Table 4). A cell culture solution was taken and synthesized collagen was measured using a Human Procollagen 1α1 Duoset ELISA Kit (R&D Systems) and a spectrophotometer.
A calibration curve was created by measuring the separated and purified collagen at concentrations of 0.25, 0.5, 1, 2, 4, and 8 ng/mL, and based on this, the collagen (Type I collagen) production amounts of Comparative Examples 1 to 4 and Examples 1 to 6, a negative control group, and a positive control group were calculated. The collagen production amount was calculated using a collagen production rate (%) relative to the group treated with methanol (negative control group) (Equation 2 below), and the experiment was performed three times, and then an average value was calculated and shown in Table 4.

[3] = Free radical scavenging ability by DPPH method; format: biochemical; conditions: each component 0.5 mg/mL in methanol; DPPH 0.12 mM; 1 hour; absorbance 517 nm; average of three
Experimental: In Comparative Examples 1 to 4 and Examples 1 to 6, a solution was prepared using methanol as a solvent so that the concentration of each component in the solution was 0.5 mg/mL. In order to confirm the antioxidant effect of Comparative Examples 1 to 4 and Examples 1 to 6, free radical scavenging ability was measured using a 1,1-diphenyl-2-picrylhydrazyl (DPPH) method. […] DPPH was used after being dissolved in methanol at a concentration of 0.12 mM.
Comparative Examples 1 to 4, Examples 1 to 6, and Trolox solutions by concentration (0.0125, 0.025, 0.05, 0.1, 0.2, 0.4, 0.8 mg/mL) were each put into a 24-well plate in an amount of 100 μL, and the DPPH solution was added in an amount of 1,900 μL. After blocking the light at room temperature and leaving it for 1 hour, the absorbance at 517 nm was measured using a microplate reader (BioTek EPOCH). A calibration curve according to the concentration was created using the absorbance values of the Trolox solution at 7 concentrations. In this experiment, Trolox is one indicator for measuring the antioxidative capacity of a sample, and the antioxidative capacity of each comparative example and example is a size compared to Trolox. The degree of antioxidant effect shown by 1 mL of the example solution by substituting the absorbance of the example solution into the calibration curve is expressed in Trolox μmol equivalents/mL and summarized in Table 2 below. The experiment was performed three times, and then an average value was calculated and shown.

[4] = system: MNT-1 melanoma cells; assay: Inhibition of melanin production in MNT-1 melanoma cells; format: cell-based; conditions: each component 3 μg/mL (3 ppm); 72 hours; relative to methanol negative control; average of three
Experimental: To culture MNT-1 melanoma cells, a mixture of Dulbecco's Modified Eagle's Medium (DMEM) and 10% fetal bovine serum (FBS) was used as a basal medium. MNT-1 melanoma cells were dispensed in a 6-well plate at a concentration of 1-2×10^5 cells/mL and cultured for 24 hours. Samples were treated so that the final concentration of each component of Comparative Examples 1 to 4 and Examples 1 to 6 was 3 μg/mL (3 ppm), and then cultured for 72 hours. As a positive control, arbutin was treated to be 200 μg/mL (200 ppm) (positive control in Table 3). Thereafter, the cells were treated with trypsin, detached from the culture vessel, centrifuged at 13,000 rpm for 1 minute, and then the supernatant was removed. Cells were lysed by adding 300 μL of a 0.5% Triton X-100 solution to the remaining cells. This was again centrifuged at 13,000 rpm for 3 minutes to recover the pellet and supernatant separately. Melanin in the pellet was dissolved by adding 100 μL of a 0.5 N sodium hydroxide solution and incubating for 12 hours, and absorbance at 450 nm was measured using a spectrophotometer to measure the total amount of melanin produced.
The total amount of inhibited melanin production was calculated as a melanin production inhibition rate (%) relative to a group (negative control group) treated with methanol (Equation 1 below), and the experiment was performed three times, and then an average value was calculated and shown in Table 3.

Structure (SMILES)	Hyaluronic acid Production rate (%) [1]	Collagen Production rate (%) [2]	Trolox μmol equivalents/mL [3]	Melanin production Inhibition rate (%) [4]
C[C@@H]1CC[C@H]2C(C)(C)[C@H]3C[C@@]12CC[C@@]3(C)O [compound 1, Cedrol]	5.6%	27.9%	0.104 Trolox μmol equivalents/mL	17.5%
COc1cc(/C=C/C(=O)O)ccc1O [compound 2, Ferulic acid]	32.2%	8.8%	0.981 Trolox μmol equivalents/mL	16.3%
CC[C@H](CC[C@@H](C)[C@H]1CC[C@H]2[C@@H]3CC=C4C[C@@H](O)CC[C@]4(C)[C@H]3CC[C@]12C)C(C)C [compound 3, Beta-sitosterol]	−3.0%	2.4%	0.051 Trolox μmol equivalents/mL	1.7%
CCCCC/C=C\C/C=C\CCCCCCCC(=O)O [compound 4, Linoleic acid]	4.1%	−2.5%	0.023 Trolox μmol equivalents/mL	6.7%
